{"source": "paper PMC10584882", "about": "(Communications Biology, 2023)", "key": {"SARS-CoV-2 [1]": {"test_system": "SARS-CoV-2", "assay": "Viral loading determination via RT-qPCR in VERO-CCL81 cells", "assay_type": "cell-based", "settings": "for Viral titer (% control): VERO CCL81, RT-qPCR, experiments 1 and 2"}, "SARS-CoV-2 [2]": {"test_system": "SARS-CoV-2", "assay": "Cytopathic effect inhibition assay in VERO-CCL81 cells", "assay_type": "cell-based", "settings": "for CPE inhibition (%): VERO CCL81, two experiments, listed as S-Calpepin"}, "SARS-CoV-2 [3]": {"test_system": "SARS-CoV-2", "assay": "Anti-viral experiment with Golden Syrian hamsters: viral load in lungs and trachea", "assay_type": "in vivo, Golden Syrian hamsters (Mesocricetus auratus)", "settings": "1 mg/kg s.c. daily from day 1; for RNA - lung / RNA - trachea / titer - lung / titer - trachea: individual hamsters; for viral load in trachea versus untreated group (in words): TCID50"}, "SARS-CoV-2 [4]": {"test_system": "SARS-CoV-2", "assay": "Anti-viral experiment with Golden Syrian hamsters: histopathology scores", "assay_type": "in vivo, Golden Syrian hamsters (Mesocricetus auratus)", "settings": "for trachea, epithelial damage (score) / bronchi, epithelial damage (score) / pulmonary parenchyma damage (score) / submucosal damage (score) / tissue repair (score) / vascular damage (score): 1 mg/kg s.c., individual hamsters; for trachea, epithelial damage (score): 0 normal, 1 mild, 2 moderate, 3 severe tracheitis; for bronchi, epithelial damage (score) / pulmonary parenchyma damage (score) / submucosal damage (score) / tissue repair (score) / vascular damage (score): sum of five lung lobes, maximum 15"}, "LC-HK2 cells": {"test_system": "LC-HK2 cells", "assay": "Fluorescence microscopy, S-protein vesicle size in infected LC-HK2 cells", "assay_type": "cell-based, human", "settings": "1.5 µM, versus control", "method": "LC-HK2 was cultivated on coverslips (13 mm diameter) to approximately 80% confluence. The cells were pre-treated for 2 h with 1.5 µM of S-Calpeptin diluted in DMEM supplemented with 2.5% FBS. The compounds were removed, and SARS-CoV-2 strain diluted in DMEM supplemented with 2.5% FBS was added to LC-HK2 cells at M.O.I of 0.05, allowing absorption for 1 h. The viral inoculum was removed, and cells were gently washed with PBS without calcium and magnesium. The cells were incubated in the continued presence of 1.5 µM of S-Calpeptin diluted in DMEM supplemented with 2.5% FBS and were examined by fluorescence microscopy at the time points 32, 40, 48, 56, 64 and 72 h post-infection.\nFor this purpose, the cells were fixed and permeabilized with 3.7% formaldehyde solution (Sigma-Aldrich, F1635) containing 0.2% Triton X-100 in PBS 1×. […] The images were captured using fluorescence range intensity adjusted identically within each experimental series.\nVesicles size quantifications were obtained from 2D maximum projections of Z stacks exported as grayscale TIFs (16-bit depth) using Automated Image Analysis in Zen 2.6 blue software (ZEISS). […]\nIn the Fluorescence microscopy evaluation, the P-values were generated by unpaired t-test using GraphPad Prism version 8.00 (La Jolla, CA, USA, www.graphpad.com). […]"}}, "note": "Several values for one entry are separate records, joined by “and”; a condition that tells them apart may be missing. Equal values may be shown once. Entries after “also recorded” stand apart in the source; their conditions may differ."}
{"smiles": "CCCC[C@H](NC(=O)[C@H](CC(C)C)NC(=O)OCc1ccccc1)C(O)S(=O)(=O)[O-].[Na+]", "note": "(stereo partly drawn) [S-Calpeptin]", "values": [{"measurement": "Viral titer (% control)", "setting": "SARS-CoV-2 [1]; 0.0781 μM", "result": 100, "unit": "% control"}, {"measurement": "Viral titer (% control)", "setting": "SARS-CoV-2 [1]; 0.1563 μM", "result": 100, "unit": "% control"}, {"measurement": "Viral titer (% control)", "setting": "SARS-CoV-2 [1]; 0.3125 μM", "result": 100, "unit": "% control"}, {"measurement": "Viral titer (% control)", "setting": "SARS-CoV-2 [1]; 0.625 μM, listed as S-Calpepin", "result": "65 % control and 61.77 % control"}, {"measurement": "Viral titer (% control)", "setting": "SARS-CoV-2 [1]; 1.25 μM, listed as S-Calpepin", "result": "24 % control and 43.33 % control"}, {"measurement": "Viral titer (% control)", "setting": "SARS-CoV-2 [1]; 2.5 μM, listed as S-Calpepin", "result": "24.98 % control and 48.08 % control"}, {"measurement": "Viral titer (% control)", "setting": "SARS-CoV-2 [1]; 5 μM", "result": 27.38, "unit": "% control"}, {"measurement": "EC50", "setting": "SARS-CoV-2 [1]; VERO-CCL81, RT-qPCR, 48 h post-infection, read-out: Viral titer EC50", "result": 700, "unit": "nM"}, {"measurement": "CPE inhibition (%)", "setting": "SARS-CoV-2 [2]; 0.0781 μM", "result": "0% and 0.33%"}, {"measurement": "CPE inhibition (%)", "setting": "SARS-CoV-2 [2]; 0.625 μM", "result": "38.01% and 20.29%"}, {"measurement": "CPE inhibition (%)", "setting": "SARS-CoV-2 [2]; 1.25 μM", "result": "52.68% and 61.52%"}, {"measurement": "CPE inhibition (%)", "setting": "SARS-CoV-2 [2]; 2.5 μM", "result": "60.88% and 68.39%"}, {"measurement": "CPE inhibition (%)", "setting": "SARS-CoV-2 [2]; 5 μM", "result": "63.97% and 88.53%"}, {"measurement": "CPE inhibition (%)", "setting": "SARS-CoV-2 [2]; 10 μM", "result": "67.47% and 80.91%"}, {"measurement": "EC50", "setting": "SARS-CoV-2 [2]; VERO-CCL81, CellTiter-Glo, 48 h post-infection, read-out: CPE inhibition EC50", "result": 700, "unit": "nM"}, {"measurement": "RNA - lung", "setting": "SARS-CoV-2 [3]; day 3 p.i., 1 mg/kg", "result": "2.194 SARS-CoV-2 RNA copies/β actin RNA copies and 2.076 SARS-CoV-2 RNA copies/β actin RNA copies and 2.135 SARS-CoV-2 RNA copies/β actin RNA copies and 5.784 SARS-CoV-2 RNA copies/β actin RNA copies and 2.611 SARS-CoV-2 RNA copies/β actin RNA copies"}, {"measurement": "RNA - trachea", "setting": "SARS-CoV-2 [3]; day 3 p.i., 1 mg/kg", "result": "2.441 SARS-CoV-2 RNA copies/β actin RNA copies and 1.131 SARS-CoV-2 RNA copies/β actin RNA copies and 3.086 SARS-CoV-2 RNA copies/β actin RNA copies and 1.769 SARS-CoV-2 RNA copies/β actin RNA copies and 1.594 SARS-CoV-2 RNA copies/β actin RNA copies"}, {"measurement": "titer - lung", "setting": "SARS-CoV-2 [3]; day 3 p.i., 1 mg/kg", "result": "10.089 log TCID50/g and 9.011 log TCID50/g and 10.277 log TCID50/g and 9.5756 log TCID50/g and 8.981 log TCID50/g"}, {"measurement": "titer - trachea", "setting": "SARS-CoV-2 [3]; day 3 p.i., 1 mg/kg", "result": "5.2099 log TCID50/g and 3.791 log TCID50/g and 5.949 log TCID50/g and 7.023 log TCID50/g and 7.625 log TCID50/g"}, {"measurement": "RNA - lung", "setting": "SARS-CoV-2 [3]; day 5 p.i., 1 mg/kg", "result": "2.363 SARS-CoV-2 RNA copies/β actin RNA copies and 1.994 SARS-CoV-2 RNA copies/β actin RNA copies and 2.073 SARS-CoV-2 RNA copies/β actin RNA copies and 2.178 SARS-CoV-2 RNA copies/β actin RNA copies and 1.943 SARS-CoV-2 RNA copies/β actin RNA copies"}, {"measurement": "RNA - trachea", "setting": "SARS-CoV-2 [3]; day 5 p.i., 1 mg/kg", "result": "1.729 SARS-CoV-2 RNA copies/β actin RNA copies and 2.0935 SARS-CoV-2 RNA copies/β actin RNA copies and 2.166 SARS-CoV-2 RNA copies/β actin RNA copies and 1.097 SARS-CoV-2 RNA copies/β actin RNA copies and 1.597 SARS-CoV-2 RNA copies/β actin RNA copies"}, {"measurement": "titer - lung", "setting": "SARS-CoV-2 [3]; day 5 p.i., 1 mg/kg", "result": "7.002 log TCID50/g and 7.059 log TCID50/g and 6.976 log TCID50/g and 7.092 log TCID50/g and 6.453 log TCID50/g"}, {"measurement": "titer - trachea", "setting": "SARS-CoV-2 [3]; day 5 p.i., 1 mg/kg", "result": "0 log TCID50/g and 2.787 log TCID50/g"}, {"measurement": "titer - trachea", "setting": "SARS-CoV-2 [3]; day 7 p.i.", "result": 0, "unit": "log TCID50/g"}, {"measurement": "RNA - lung", "setting": "SARS-CoV-2 [3]; day 7 p.i., 1 mg/kg", "result": "0.6096 SARS-CoV-2 RNA copies/β actin RNA copies and 0.8217 SARS-CoV-2 RNA copies/β actin RNA copies and 0.4837 SARS-CoV-2 RNA copies/β actin RNA copies and 0.3749 SARS-CoV-2 RNA copies/β actin RNA copies and 1.469 SARS-CoV-2 RNA copies/β actin RNA copies"}, {"measurement": "RNA - trachea", "setting": "SARS-CoV-2 [3]; day 7 p.i., 1 mg/kg", "result": "0.3702 SARS-CoV-2 RNA copies/β actin RNA copies and -0.0169 SARS-CoV-2 RNA copies/β actin RNA copies and -0.6383 SARS-CoV-2 RNA copies/β actin RNA copies and 0.1661 SARS-CoV-2 RNA copies/β actin RNA copies and 0.09095 SARS-CoV-2 RNA copies/β actin RNA copies"}, {"measurement": "titer - lung", "setting": "SARS-CoV-2 [3]; day 7 p.i., 1 mg/kg", "result": "0 log TCID50/g and 1.7736 log TCID50/g"}, {"measurement": "viral load in lungs versus untreated group (in words)", "setting": "SARS-CoV-2 [3]; hamsters, day 5 p.i., 1 mg/kg", "result": "lower SARS-CoV-2 titers in the treated group compared to the untreated group; also recorded: lower viral loads in their trachea and lungs"}, {"measurement": "viral load in trachea versus untreated group (in words)", "setting": "SARS-CoV-2 [3]; hamsters, day 5 p.i., 1 mg/kg", "result": "statistically significant difference on TCID50 viral load in trachea; also recorded: reduces viral load in trachea; also recorded: significant reduction of the viral load in trachea on day 5; also recorded: the decrease was only statistically significant in the trachea"}, {"measurement": "viral load in trachea versus untreated group (in words)", "setting": "SARS-CoV-2 [3]; hamsters, day 5 p.i., listed as sulfonated Calpeptin, 1 mg/kg", "result": "reduces the viral load in the trachea"}, {"measurement": "trachea, epithelial damage (score)", "setting": "SARS-CoV-2 [4]; day 3 p.i., 1 mg/kg", "result": "0 and 1"}, {"measurement": "bronchi, epithelial damage (score)", "setting": "SARS-CoV-2 [4]; day 3 p.i., 1 mg/kg", "result": "6 and 3 and 1 and 4"}, {"measurement": "pulmonary parenchyma damage (score)", "setting": "SARS-CoV-2 [4]; day 3 p.i., 1 mg/kg", "result": "7 and 4 and 5 and 8"}, {"measurement": "submucosal damage (score)", "setting": "SARS-CoV-2 [4]; day 3 p.i., 1 mg/kg", "result": "7 and 2 and 1 and 5"}, {"measurement": "tissue repair (score)", "setting": "SARS-CoV-2 [4]; day 3 p.i., 1 mg/kg", "result": "7 and 6 and 2 and 4"}, {"measurement": "vascular damage (score)", "setting": "SARS-CoV-2 [4]; day 3 p.i., 1 mg/kg", "result": "7 and 8 and 3 and 9"}, {"measurement": "trachea, epithelial damage (score)", "setting": "SARS-CoV-2 [4]; day 5 p.i., 1 mg/kg", "result": "0 and 1 and 2"}, {"measurement": "bronchi, epithelial damage (score)", "setting": "SARS-CoV-2 [4]; day 5 p.i.", "result": 2}, {"measurement": "pulmonary parenchyma damage (score)", "setting": "SARS-CoV-2 [4]; day 5 p.i., 1 mg/kg", "result": "7 and 10 and 9"}, {"measurement": "submucosal damage (score)", "setting": "SARS-CoV-2 [4]; day 5 p.i., 1 mg/kg", "result": "8 and 11 and 9 and 10"}, {"measurement": "tissue repair (score)", "setting": "SARS-CoV-2 [4]; day 5 p.i., 1 mg/kg", "result": "6 and 8 and 9 and 10"}, {"measurement": "vascular damage (score)", "setting": "SARS-CoV-2 [4]; day 5 p.i., 1 mg/kg", "result": "10 and 9 and 11 and 13"}, {"measurement": "trachea, epithelial damage (score)", "setting": "SARS-CoV-2 [4]; day 7 p.i., 1 mg/kg", "result": "0 and 1"}, {"measurement": "bronchi, epithelial damage (score)", "setting": "SARS-CoV-2 [4]; day 7 p.i., 1 mg/kg", "result": "2 and 3 and 1"}, {"measurement": "pulmonary parenchyma damage (score)", "setting": "SARS-CoV-2 [4]; day 7 p.i., 1 mg/kg", "result": "8 and 7 and 10"}, {"measurement": "submucosal damage (score)", "setting": "SARS-CoV-2 [4]; day 7 p.i., 1 mg/kg", "result": "10 and 11 and 14"}, {"measurement": "tissue repair (score)", "setting": "SARS-CoV-2 [4]; day 7 p.i., 1 mg/kg", "result": "15 and 14"}, {"measurement": "vascular damage (score)", "setting": "SARS-CoV-2 [4]; day 7 p.i., 1 mg/kg", "result": "7 and 5 and 9"}, {"measurement": "histopathology lesion scores versus untreated (in words)", "setting": "SARS-CoV-2 [4]; infected hamsters, 1 mg/kg s.c. daily", "result": "no statistically significant differences in lesion scores"}, {"measurement": "lung vascular damage scores versus untreated (in words)", "setting": "SARS-CoV-2 [4]; infected hamsters, 1 mg/kg s.c. daily, days 5 and 7 p.i.", "result": "lower scores for vascular damage compared to the untreated group on days 5 and 7 p.i., these results were not statistically significant"}, {"measurement": "impact on vesicle morphology / S-protein vesicle size", "setting": "LC-HK2 cells", "result": "did not reveal significant differences; also recorded: no substantial impact on vesicle morphology"}]}
